From patent publication US4076703A, “Dipeptide derivatives and their production” (Shionogi & Co., Ltd., priority 1974, dated 1978)

Legend:
DS male mice [1] = test: Taming activity (inhibition of electroshock-induced fighting); assay type: in vivo; conditions: for Taming activity ED50: administered 60 minutes prior to experiment, inhibition of fighting responses, 5 pairs of mice; for times more potent than diazepam in the taming activity: relative to diazepam (Compound No. 5)
Procedure: (§1) This test was measured on DS male mice.
These pairs of mice were selected in the morning and used for drug test in the afternoon. The test compound was administered to both mice of the pairs 60 minutes prior to the experiment. Results were obtained as the mean percentage of inhibition of fighting responses in a group of 5 pairs and shown by ED50 [Tedeschi, et al.: J. Pharmacol Exp. Thev., 125, 28-34 (1959)].

DS male mice [2] = test: Anti-pentylenetetrazol activity; conditions: for Anti-pentylenetetrazol activity, ED50: test compound given orally 60 minutes prior to 125 mg/kg s.c. pentylenetetrazol, complete protection against mortality, observed 2 hours; for times more potent than diazepam in the anti-pentylenetetrazol activity: relative to diazepam (Compound No. 5)
Procedure: This test was measured on a group of 10 DS male mice. […] In this test, the test compound was given orally 60 minutes prior to the administration of pentylenetetrazol. The observation was made for 2 hours after the administration of pentylenetetrazol. The criterion of anticonvulsant activity was determined as being complete protection against mortality. The convulsions were disregarded. Results were shown as ED50 [Goodman, et al.: J. Pharmacol., 108, 168 (1953)].

DS male mice [3] = test: Rotarod performance activity; assay type: in vivo; conditions: mouse falling from rod (5 rotations per minute) within less than 2 minutes
Procedure: 3. Rotarod performance activity:
as §1
The mouse was put on a scraped rod of wood, 3 cm in diameter, turning at the rate of five rotations per minute. The mice that could remain on the rod for 3 or more minutes in successive trails were selected and placed in a group of 10 mice for each dose. If the mouse fell down from the rod within less than 2 minutes, the test compound was considered to be effective. Results were shown by ED50 [Dunham, et al.: J. Am. Pharm. Assoc., 46, 208 (1957)].

DS male mice [4] = conditions: oral single dose, observed for 72 hours, Bliss method
Procedure: The test compound was orally administered to DS male mice in different single doses. For each dose, 10 mice were used, their weight ranging from 20 to 23 grams. […] The mortality was calculated by the Bliss method [Bliss: Ann.

[5] = relative to chlordiazepoxide (Compound No. 4)

CN(C(=O)CNC(=O)CN)c1ccc(Cl)cc1C(=O)c1ccccc1 [Compound No. 1, 2-benzoyl-4-chloro-N-methyl-N^α -glycyl-glycinanilide]
times more potent than chlordiazepoxide in the taming activity (DS male mice [1]; [5]): 2 to 3 times
times more potent than chlordiazepoxide in the anti-pentylenetetrazol activity (DS male mice [2]; [5]): 2 to 3 times
Anti-pentylenetetrazol activity, ED50 (DS male mice [2]): 1.0 mg/kg

CN1C(=O)CN=C(c2ccccc2)c2cc(Cl)ccc21 [Compound No. 5, Diazepam]
Rotarod performance ED50 (DS male mice [3]): 9.03 mg/kg

CNC1=Nc2ccc(Cl)cc2C(c2ccccc2)=[N+]([O-])C1 [Compound No. 4, Chlordiazepoxide]
Rotarod performance ED50 (DS male mice [3]): 50.0 mg/kg

CN(C(=O)CNC(=O)CN)c1ccc(Cl)cc1C(=O)c1ccccc1F.Cl [Compound No. 3, 2-o-fluorobenzoyl-4-chloro-N-methyl-N^α -glycyl-glycinanilide hydrochloride]
Taming activity ED50 (DS male mice [1]): 1.6 mg/kg
times more potent than diazepam in the taming activity (DS male mice [1]): 2 to 4 times
Rotarod performance ED50 (DS male mice [3]): 17.0 mg/kg
Acute toxicity LD50 (DS male mice [4]): > 1000 mg/kg
times more potent than diazepam in the anti-pentylenetetrazol activity (DS male mice [2]): 2 to 4 times
Anti-pentylenetetrazol activity, ED50 (DS male mice [2]): 0.33 mg/kg

CN(C(=O)CNC(=O)CN)c1ccc(Cl)cc1C(=O)c1ccccc1Cl.O [Compound No. 2, 2-o-chlorobenzoyl-4-chloro-N-methyl-N^α -glycyl-glycinanilide hydrate]
Taming activity ED50 (DS male mice [1]): 3.0 mg/kg
times more potent than diazepam in the taming activity (DS male mice [1]): 2 to 4 times
times more potent than diazepam in the anti-pentylenetetrazol activity (DS male mice [2]): 2 to 4 times
Anti-pentylenetetrazol activity, ED50 (DS male mice [2]): 0.58 mg/kg
